# pIC50: −log10 of the molar value.
# Legend:
# [1] = tested on: Escherichia coli; assay: Antibacterial activity against Escherichia coli ATCC 8739 after 24 hrs by broth microdilution method; assay type: functional
# [2] = tested on: Klebsiella pneumoniae; assay: Antibacterial activity against extended spectrum beta-lactamase producing Klebsiella pneumoniae J 14368/08 after 24 hrs by broth microdilution method; assay type: functional
# [3] = tested on: Pseudomonas aeruginosa; assay: Antibacterial activity against Pseudomonas aeruginosa ATCC 9027 after 24 hrs by broth microdilution method; assay type: functional
# [4] = tested on: Klebsiella pneumoniae; assay: Antibacterial activity against Klebsiella pneumoniae D 11750/08 after 24 hrs by broth microdilution method; assay type: functional
# [5] = tested on: Klebsiella pneumoniae; assay: Antibacterial activity against Klebsiella pneumoniae D 11750/08 after 48 hrs by broth microdilution method; assay type: functional; details: D 11750/08, 48 h
# [6] = tested on: Trichosporon asahii; assay: Antifungal activity against Trichosporon asahii 1188 after 24 hrs by broth microdilution method; assay type: functional; details: Trichosporon asahii, 1188, 24 h
# [7] = tested on: Mycobacterium avium; assay: Antimycobacterial activity against Mycobacterium avium CNCTC My 330/88 after 21 days by micromethod; assay type: functional; details: CNCTC My 330/88, 504 h
# [8] = tested on: Candida albicans; assay: Antifungal activity against Candida albicans ATCC 44859 after 24 hrs by broth microdilution method; assay type: functional; details: ATCC 44859, 24 h
# [9] = tested on: Mycobacterium kansasii; assay: Antimycobacterial activity against Mycobacterium kansasii 6509/96 after 21 days by micromethod; assay type: functional; details: 6509/96, 504 h
# [10] = tested on: Mycobacterium kansasii; assay: Antimycobacterial activity against Mycobacterium kansasii CNCTC My 235/80 after 14 days by micromethod; assay type: functional; details: CNCTC My 235/80, 336 h
# [11] = tested on: Aspergillus fumigatus; assay: Antifungal activity against Aspergillus fumigatus 231 after 24 hrs by broth microdilution method; assay type: functional, organism-based; details: Aspergillus fumigatus, 231, 24 h
# [12] = tested on: Pichia kudriavzevii; assay: Antifungal activity against Candida krusei E28 after 48 hrs by broth microdilution method; assay type: functional; details: E28, 48 h
# [13] = tested on: Candida albicans; assay: Antifungal activity against Candida albicans ATCC 44859 after 48 hrs by broth microdilution method; assay type: functional; details: ATCC 44859, 48 h
# [14] = tested on: Mycobacterium avium; assay: Antimycobacterial activity against Mycobacterium avium CNCTC My 330/88 after 14 days by micromethod; assay type: functional; details: CNCTC My 330/88, 336 h
# [15] = tested on: Escherichia coli; assay: Antibacterial activity against Escherichia coli ATCC 8739 after 48 hrs by broth microdilution method; assay type: functional; details: ATCC 8739, ATCC 8739, 48 h
# [16] = tested on: Lichtheimia corymbifera; assay: Antifungal activity against Absidia corymbifera 272 after 48 hrs by broth microdilution method; assay type: functional, organism-based; details: Lichtheimia corymbifera, 272, 48 h
# [17] = tested on: Trichophyton mentagrophytes; assay: Antifungal activity against Trichophyton mentagrophytes 445 after 72 hrs by broth microdilution method; assay type: functional, organism-based; details: Trichophyton mentagrophytes, 445, 72 h
# [18] = tested on: Candida tropicalis; assay: Antifungal activity against Candida tropicalis 156 after 48 hrs by broth microdilution method; assay type: functional; details: Candida tropicalis, 156, 48 h
# [19] = tested on: Mycobacterium kansasii; assay: Antimycobacterial activity against Mycobacterium kansasii 6509/96 after 7 days by micromethod; assay type: functional; details: 6509/96, 168 h
# [20] = tested on: Staphylococcus aureus; assay: Antibacterial activity against Staphylococcus aureus ATCC 6538 after 24 hrs by broth microdilution method; assay type: functional; details: ATCC 6538, 24 h
# [21] = tested on: Staphylococcus epidermidis; assay: Antibacterial activity against Staphylococcus epidermidis H 6966/08 after 24 hrs by broth microdilution method; assay type: functional; details: H 6966/08, 24 h
# [22] = tested on: Mycobacterium tuberculosis; assay: Antimycobacterial activity against Mycobacterium tuberculosis CNCTC My 331/88 after 14 days by micromethod; assay type: functional; details: CNCTC My 331/88, 336 h
# [23] = tested on: Staphylococcus aureus; assay: Antibacterial activity against methicillin-resistant Staphylococcus aureus H 5996/08 after 48 hrs by broth microdilution method; assay type: functional; details: H 5996/08, 48 h
# [24] = tested on: Trichosporon asahii; assay: Antifungal activity against Trichosporon asahii 1188 after 48 hrs by broth microdilution method; assay type: functional; details: Trichosporon asahii, 1188, 48 h
# [25] = tested on: Pichia kudriavzevii; assay: Antifungal activity against Candida krusei E28 after 24 hrs by broth microdilution method; assay type: functional; details: E28, 24 h
# [26] = tested on: Aspergillus fumigatus; assay: Antifungal activity against Aspergillus fumigatus 231 after 48 hrs by broth microdilution method; assay type: functional, organism-based; details: Aspergillus fumigatus, 231, 48 h
# [27] = tested on: Pseudomonas aeruginosa; assay: Antibacterial activity against Pseudomonas aeruginosa ATCC 9027 after 48 hrs by broth microdilution method; assay type: functional; details: ATCC 9027, 48 h
# [28] = tested on: Nakaseomyces glabratus; assay: Antifungal activity against Candida glabrata 20/I after 24 hrs by broth microdilution method; assay type: functional
# [29] = tested on: Candida tropicalis; assay: Antifungal activity against Candida tropicalis 156 after 24 hrs by broth microdilution method; assay type: functional; details: Candida tropicalis, 156, 24 h
# [30] = tested on: Staphylococcus epidermidis; assay: Antibacterial activity against Staphylococcus epidermidis H 6966/08 after 48 hrs by broth microdilution method; assay type: functional; details: H 6966/08, 48 h
# [31] = tested on: Mycobacterium kansasii; assay: Antimycobacterial activity against Mycobacterium kansasii CNCTC My 235/80 after 7 days by micromethod; assay type: functional; details: CNCTC My 235/80, 168 h
# [32] = tested on: Klebsiella pneumoniae; assay: Antibacterial activity against extended spectrum beta-lactamase producing Klebsiella pneumoniae J 14368/08 after 48 hrs by broth microdilution method; assay type: functional; details: J 14368/08, 48 h
# [33] = tested on: Nakaseomyces glabratus; assay: Antifungal activity against Candida glabrata 20/I after 48 hrs by broth microdilution method; assay type: functional
# [34] = tested on: Enterococcus faecalis; assay: Antibacterial activity against Enterococcus faecalis J 14365/08 after 48 hrs by broth microdilution method; assay type: functional; details: J 14365/08, 48 h
# [35] = tested on: Mycobacterium tuberculosis; assay: Antimycobacterial activity against Mycobacterium tuberculosis CNCTC My 331/88 after 21 days by micromethod; assay type: functional; details: CNCTC My 331/88, 504 h
# [36] = tested on: Trichophyton mentagrophytes; assay: Antifungal activity against Trichophyton mentagrophytes 445 after 120 hrs by broth microdilution method; assay type: functional, organism-based; details: Trichophyton mentagrophytes, 445, 120 h
# [37] = tested on: Staphylococcus aureus; assay: Antibacterial activity against Staphylococcus aureus ATCC 6538 after 48 hrs by broth microdilution method; assay type: functional; details: ATCC 6538, 48 h
# [38] = tested on: Staphylococcus aureus; assay: Antibacterial activity against methicillin-resistant Staphylococcus aureus H 5996/08 after 24 hrs by broth microdilution method; assay type: functional; details: H 5996/08, 24 h
# [39] = tested on: Enterococcus faecalis; assay: Antibacterial activity against Enterococcus faecalis J 14365/08 after 24 hrs by broth microdilution method; assay type: functional; details: J 14365/08, 24 h
# [40] = tested on: Mycobacterium kansasii; assay: Antimycobacterial activity against Mycobacterium kansasii CNCTC My 235/80 after 21 days by micromethod; assay type: functional; details: CNCTC My 235/80, 504 h
# [41] = tested on: Mycobacterium kansasii; assay: Antimycobacterial activity against Mycobacterium kansasii 6509/96 after 14 days by micromethod; assay type: functional; details: 6509/96, 336 h
# [42] = tested on: Lichtheimia corymbifera; assay: Antifungal activity against Absidia corymbifera 272 after 24 hrs by broth microdilution method; assay type: functional, organism-based; details: Lichtheimia corymbifera, 272, 24 h
compound,measurement,setting,value
GENTAMICIN,IC95,[1],0.26 µM
same,IC95,[2],0.26 µM
same,IC95,[3],1 µM
same,IC95,[4],0.26 µM
O=C(O)c1cccc(-n2nnnc2SCc2cc([N+](=O)[O-])cc([N+](=O)[O-])c2)c1,IC95,"[1]; ATCC 8739, ATCC 8739, 24 h",> 500 µM
same,IC95,[5],> 500 µM
same,IC80,[6],> 500 µM
same,MIC,[7],1000 µM
same,IC80,[8],> 500 µM
same,MIC,[9],1000 µM
same,MIC,[10],1000 µM
same,pIC50,[11],< 3.30
same,IC80,[12],> 500 µM
same,IC80,[13],> 500 µM
same,MIC,[14],1000 µM
same,IC95,[15],> 500 µM
same,pIC50,[16],< 3.30
same,pIC50,[17],< 3.30
same,IC80,[18],> 500 µM
same,MIC,[19],1000 µM
same,IC95,[20],> 500 µM
same,IC95,[21],500 µM
same,MIC,[22],1000 µM
same,IC95,[23],> 500 µM
same,IC80,[24],> 500 µM
same,IC80,[25],> 500 µM
same,pIC50,[26],< 3.30
same,IC95,[27],> 500 µM
same,IC80,[28],> 500 µM
same,IC80,[29],> 500 µM
same,IC95,[30],> 500 µM
same,MIC,[31],500 µM
same,IC95,[32],> 500 µM
same,IC95,"[2]; J 14368/08, 24 h",> 500 µM
same,IC80,[33],> 500 µM
same,IC95,[34],> 500 µM
same,MIC,[35],1000 µM
same,IC95,"[3]; ATCC 9027, 24 h",> 500 µM
same,IC95,"[4]; D 11750/08, 24 h",> 500 µM
same,pIC50,[36],< 3.30
same,IC95,[37],> 500 µM
same,IC95,[38],> 500 µM
same,IC95,[39],> 500 µM
same,MIC,[40],1000 µM
same,MIC,[41],1000 µM
same,pIC50,[42],< 3.30
O=[N+]([O-])c1cc(CSc2cccc[n+]2[O-])cc([N+](=O)[O-])c1,IC95,"[1]; ATCC 8739, ATCC 8739, 24 h",> 500 µM
same,IC95,[5],> 500 µM
same,IC80,[6],> 500 µM
same,MIC,[7],1000 µM
same,IC80,[8],> 500 µM
same,MIC,[9],125 µM
same,MIC,[10],32 µM
same,pIC50,[11],< 3.30
same,IC80,[12],> 500 µM
same,IC80,[13],> 500 µM
same,MIC,[14],500 µM
same,IC95,[15],> 500 µM
same,pIC50,[16],< 3.30
same,pIC50,[17],< 3.30
same,IC80,[18],> 500 µM
same,MIC,[19],125 µM
same,IC95,[20],> 500 µM
same,IC95,[21],> 500 µM
same,MIC,[22],62 µM
same,IC95,[23],> 500 µM
same,IC80,[24],> 500 µM
same,IC80,[25],> 500 µM
same,pIC50,[26],< 3.30
same,IC95,[27],> 500 µM
same,IC80,[28],> 500 µM
same,IC80,[29],> 500 µM
same,IC95,[30],> 500 µM
same,MIC,[31],16 µM
same,IC95,[32],> 500 µM
same,IC95,"[2]; J 14368/08, 24 h",> 500 µM
same,IC80,[33],> 500 µM
same,IC95,[34],> 500 µM
same,MIC,[35],62 µM
same,IC95,"[3]; ATCC 9027, 24 h",> 500 µM
same,IC95,"[4]; D 11750/08, 24 h",> 500 µM
same,pIC50,[36],< 3.30
same,IC95,[37],> 500 µM
same,IC95,[38],> 500 µM
same,IC95,[39],> 500 µM
same,MIC,[40],32 µM
same,MIC,[41],125 µM
same,pIC50,[42],< 3.30

# — ChEMBL document CHEMBL3297661, “1-Substituted-5-[(3,5-dinitrobenzyl)sulfanyl]-1H-tetrazoles and their isosteric analogs: A new class of selective antitubercular agents active against drug-susceptible and multidrug-resistant mycobacteria” (Eur J Med Chem, 2014)
